# According to PMC11945486, “TAS1R2/TAS1R3 Single-Nucleotide Polymorphisms Affect Sweet Taste Receptor Activation by Sweeteners: The SWEET Project” (Nutrients, 2025):
# Where two headings read alike, the source gives them in different places. No end group written: not given here.
# T1: human TAS1R2-WT/TAS1R3-A735T (Homo sapiens, UniProt Q7RTX0+Q8TE23, A735T)
# T1 construct: expressed in transfected cells; host or cells: HEK293T stably expressing Gα16gust44
# T1 sequence (Q8TE23 20-839): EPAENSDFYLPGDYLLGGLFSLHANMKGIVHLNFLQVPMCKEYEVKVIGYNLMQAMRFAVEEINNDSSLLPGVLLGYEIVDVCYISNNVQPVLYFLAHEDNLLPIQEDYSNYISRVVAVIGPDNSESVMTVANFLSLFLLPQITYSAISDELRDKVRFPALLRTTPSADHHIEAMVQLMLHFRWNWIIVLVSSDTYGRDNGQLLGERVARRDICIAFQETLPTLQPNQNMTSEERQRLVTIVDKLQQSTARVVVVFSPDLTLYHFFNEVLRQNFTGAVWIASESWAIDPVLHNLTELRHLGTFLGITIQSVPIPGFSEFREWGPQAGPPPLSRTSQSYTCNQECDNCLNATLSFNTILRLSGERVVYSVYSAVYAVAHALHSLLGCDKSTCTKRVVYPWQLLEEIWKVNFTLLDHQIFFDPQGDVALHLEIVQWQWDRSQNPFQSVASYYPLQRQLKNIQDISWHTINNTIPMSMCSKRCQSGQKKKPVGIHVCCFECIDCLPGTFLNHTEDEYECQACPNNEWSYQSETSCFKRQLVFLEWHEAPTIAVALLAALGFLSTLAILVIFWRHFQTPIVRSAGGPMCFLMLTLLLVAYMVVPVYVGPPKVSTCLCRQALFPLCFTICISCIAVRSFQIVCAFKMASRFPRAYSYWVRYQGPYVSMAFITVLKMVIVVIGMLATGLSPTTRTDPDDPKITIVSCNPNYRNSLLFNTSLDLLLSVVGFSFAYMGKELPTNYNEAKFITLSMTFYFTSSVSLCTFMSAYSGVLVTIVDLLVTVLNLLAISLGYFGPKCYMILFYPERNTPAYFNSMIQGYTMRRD
# T1 sequence (Q7RTX0 21-852 A735T): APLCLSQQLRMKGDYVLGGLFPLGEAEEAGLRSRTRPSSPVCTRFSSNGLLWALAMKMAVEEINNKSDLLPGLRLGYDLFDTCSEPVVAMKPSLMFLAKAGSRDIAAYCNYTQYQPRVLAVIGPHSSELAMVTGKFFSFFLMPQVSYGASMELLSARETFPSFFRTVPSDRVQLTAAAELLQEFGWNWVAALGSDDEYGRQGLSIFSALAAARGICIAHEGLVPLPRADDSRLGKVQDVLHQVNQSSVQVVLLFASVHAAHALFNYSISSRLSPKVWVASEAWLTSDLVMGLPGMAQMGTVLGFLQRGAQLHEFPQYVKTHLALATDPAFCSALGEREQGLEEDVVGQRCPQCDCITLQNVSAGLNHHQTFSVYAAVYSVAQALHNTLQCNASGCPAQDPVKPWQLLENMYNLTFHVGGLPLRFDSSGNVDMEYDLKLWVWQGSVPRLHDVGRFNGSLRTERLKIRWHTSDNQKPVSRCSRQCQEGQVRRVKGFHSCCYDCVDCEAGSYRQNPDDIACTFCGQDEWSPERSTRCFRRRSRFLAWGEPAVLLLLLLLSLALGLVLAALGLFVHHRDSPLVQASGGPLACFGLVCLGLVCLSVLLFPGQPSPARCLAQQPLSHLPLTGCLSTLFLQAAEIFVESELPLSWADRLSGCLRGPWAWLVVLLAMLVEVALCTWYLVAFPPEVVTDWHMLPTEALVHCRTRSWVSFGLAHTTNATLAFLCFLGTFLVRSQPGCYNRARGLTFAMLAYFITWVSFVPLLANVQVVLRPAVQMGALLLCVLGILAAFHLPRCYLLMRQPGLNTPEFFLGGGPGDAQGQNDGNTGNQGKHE
# B1: thaumatin (protein)
# chain: ATFEIVNRCSYTVWAAASKGDAALDAGGRQLNSGESWTINVEPGTKGGKIWARTDCYFDDSGSGICKTGDCGGLLRCKRFGRPPTTLAEFSLNQYGKDYIDISNIKGFNVPMDFSPTTRGCRGVRCAADIVGQCPAKLKAPGGGCNDACTVFQTSEYCCTTGKCGPTEYSRFFKRLCPDAFSYVLDKPTTVTCPGSSNYRVTFCPTA
# modifications: Eight disulfides
# notes: sweet-tasting plant protein, E957
# Target: T1, human TAS1R2-WT/TAS1R3-A735T
# Assay: Calcium mobilisation assay, TAS1R2-WT with TAS1R3 variant A735T
# Type: cell-based
# Conditions: for Max ΔF/F0: maximal signal amplitude
# Text: The coding sequences for TAS1R2 and TAS1R3 were commercially synthesised, and the human codon was optimised for expression in human cells. The coding sequences of human TAS1R2 and TAS1R3 were subcloned and inserted into the mammalian expression vectors pcDNA6/myc-HisA and pcDNA4/myc-HisA (Invitrogen; Thermo Fisher Scientific; Illkirch, France) between the EcoRI and NotI restriction sites, generating the plasmids pcDNA6-TAS1R2 and pcDNA4-TAS1R3, respectively. To increase protein expression in mammalian cells, an upstream start codon was used, which was a sequence called MAX, corresponding to the QBI SP163 element also described in pcDNA4-HisMax (Invitrogen; Thermo Fisher Scientific; Illkirch, France). To measure the expression level of the receptor by immunohistochemistry, we used the FLAG sequence ([…]) in the C-terminal position, which encodes the FLAG tag epitope. SNP variants of TAS1R2 and TAS1R3 were constructed based on […], respectively, using site-directed mutagenesis (Genewiz; Leipzig, Germany).
# The HEK293T cells were kindly provided by Jay P. Slack (Givaudan Flavors Corporation; Cincinnati, OH, USA). HEK293T cells stably transfected with Gα16gust44 [43, 67] were seeded in poly-D-lysine-coated clear-bottom black 96-well plates (0.35 × 10^5 cells/well) in high-glucose DMEM supplemented with 2 mM GlutaMAX, 10% dialysed foetal bovine serum with penicillin/streptomycin and G418 (400 μg/mL) at 37 °C and 6.3% CO2 in a humidified atmosphere as previously reported. […] As a negative control, HEK293T cells were mock-transfected with the empty expression vector. After a further 24 h of incubation, the HEK293T cells were washed with C1 buffer (130 mM NaCl, 5 mM KCl, 10 mM HEPES pH 7.4 and 2 mM CaCl2). The 96-well plates containing the cells were then stimulated with sweet-tasting compounds. […] Different concentration ranges were tested depending on the sweet compound injected. The Ca^2+ changes were expressed as fractional changes in fluorescent light intensity: ΔF/F = (F − F0)/F0, where F was the fluorescent light intensity at each point, and F0 was the value of emitted fluorescent light prior to stimulus application. To calculate dose–response relationships, the changes in fluorescence upon stimulus application were averaged, mock-subtracted and baseline-corrected. The dose–response data obtained were adjusted using a 4-parameter logistic equation. The half-maximal effective concentrations (EC50 values) and maximal signal amplitudes were calculated using SigmaPlot software (version 15.0) (Systat Software; San Jose, CA, USA).
# For in vitro calcium mobilisation assay performed on hTAS1R2-SNPs, hTAS1R3-SNPs and mTAS1R3-I60T, 6 to 7 concentrations were tested for each sweet compound, plus buffer alone. All concentration–receptor combinations were measured in duplicate, and each experiment was repeated at least 4 times (8 wells/concentration). Results were expressed for each concentration as ΔF/F mean ± SEM and represented as dose–response curves.
Molecule,R1 = Variant EC50/WT EC50,Max ΔF/F0,EC50 (read-out: EC50) [µM],EC50 (brazzein) [µg/mL]
OC[C@H]1O[C@H](O[C@]2(CCl)O[C@H](CCl)[C@@H](O)[C@@H]2O)[C@H](O)[C@@H](O)[C@H]1Cl [Sucralose],1.4,0.70 ± 0.01,151 ± 4,
"C[C@H](CC[C@@H](O[C@@H]1O[C@H](CO[C@@H]2O[C@H](CO)[C@@H](O)[C@H](O)[C@H]2O)[C@@H](O)[C@H](O)[C@H]1O[C@@H]1O[C@H](CO)[C@@H](O)[C@H](O)[C@H]1O)C(C)(C)O)[C@H]1CC[C@@]2(C)[C@@H]3CC=C4[C@@H](CC[C@H](O[C@@H]5O[C@H](CO[C@@H]6O[C@H](CO)[C@@H](O)[C@H](O)[C@H]6O)[C@@H](O)[C@H](O)[C@H]5O)C4(C)C)[C@]3(C)[C@H](O)C[C@]12C [Mogroside V, mogroside V]",0.9,1.17 ± 0.03,28.7 ± 2.2,
COC(=O)[C@H](Cc1ccccc1)NC(=O)[C@H](CC(=O)O)NCCC(C)(C)C [Neotame],0.8,0.61 ± 0.02,0.93 ± 0.07,
"brazzein (QDKCKKVYENYPVSKCQLANQCNYDCKLDKHARSGECFYDEKRNLQCICDYCEY; ends and bridges not checked; cysteine pairing not given here; UniProt P56552 1-54, looked up) [sweet-tasting protein obtained by recombinant production using the yeast Pichia pastoris]",0.7,0.90 ± 0.05,,82.7 ± 14.9
"C=C(C)[C@@H]1CC=C(/C=N/O)CC1 [Perillartine, perillartine]",0.9,1.56 ± 0.23,12.6 ± 5.9,
"CC1=CC(=O)NS(=O)(=O)O1 [Acesulfame K, acesulfame K]",1.1,0.47 ± 0.02,685 ± 56,
"C=C1C[C@@]23CC[C@H]4[C@@](C)(CCC[C@@]4(C)C(=O)O[C@@H]4O[C@H](CO)[C@@H](O)[C@H](O[C@@H]5O[C@H](CO)[C@@H](O)[C@H](O)[C@H]5O)[C@H]4O[C@@H]4O[C@H](CO)[C@@H](O)[C@H](O)[C@H]4O)[C@@H]2CC[C@]1(O[C@@H]1O[C@H](CO)[C@@H](O)[C@H](O[C@@H]2O[C@H](CO)[C@@H](O)[C@H](O)[C@H]2O)[C@H]1O[C@@H]1O[C@H](CO)[C@@H](O)[C@H](O)[C@H]1O)C3 [Rebaudioside M, rebaudioside M]",0.6,1.24 ± 0.04,23 ± 1.9,
"O=S(=O)(O)NC1CCCCC1 [Cyclamate, cyclamate]",,,1870 ± 32,
"COc1ccc(CCC(=O)c2c(O)cc(O[C@@H]3O[C@H](CO)[C@@H](O)[C@H](O)[C@H]3O[C@@H]3O[C@@H](C)[C@H](O)[C@@H](O)[C@H]3O)cc2O)cc1O [NHDC, neohesperidin dihydrochalcone]",0.8,1.00 ± 0.01,42.2 ± 1.4,
thaumatin,0.7,0.70 ± 0.06,,
B1,,,7.2 ± 1.5,
